Experimental data from article PMC8308678, “Treatment with Micafungin in a Preterm Neonate with an Invasive Candida parapsilosis Infection after a Severe Terlipressin-Induced Skin Necrosis” (Pathogens, 2021).
Converted amounts (≈) assume the structure as drawn. Read-outs that look alike come from different tables or passages of the source. Starred links: 1 amine or outer side, 2 acyl side, 3 side chain; linkers in the order of their positions; H or OH if unused. Positions of bridges follow the written chain, without caps; N, C: chain ends. Non-standard residues stand in square brackets, D forms with d. Residues, ends and D or L forms follow the SMILES beside them. *: point of attachment. hTyr(3S-OH,4S-OH,3'-OSO3H) = N[C@H](C(=O)O)[C@H](O)[C@@H](O)c1ccc(O)c(OS(=O)(=O)O)c1; pTerphenylCO(4''-OnC5H11) = CCCCCOc1ccc(-c2ccc(-c3ccc(C(=O)*)cc3)cc2)cc1; Orn(4R-OH,5R-OH) = O=C([C@H](C[C@@H](O)[C@@H](O)N[*:3])N[*:1])[*:2]; hTyr(3S-OH,4S-OH) = N[C@H](C(=O)O)[C@H](O)[C@@H](O)c1ccc(O)cc1; Pro(3S-OH,4S-Me) = C[C@H]1CN[C@H](C(=O)O)[C@H]1O; X1 = CCCCCOc1ccc(-c2cc(-c3ccc(C(=O)*)cc3)no2)cc1; Gln(3R-OH) = NC(=O)C[C@@H](O)[C@H](N)C(=O)O; Hyp = O=C(O)[C@@H]1C[C@@H](O)CN1

Columns and labels:
[1] = test system: Candida parapsilosis; assay: microbe, parasite or virus in culture; type: cell-based; conditions: CLSI guidelines; for MIC: isolated Candida parapsilosis strain (cutaneous swab and urine culture); for Susceptibility of the isolated Candida strain: isolated Candida parapsilosis strain
Method: (§1) Cutaneous swab and urine culture both yielded Candida parapsilosis. The fungal load in urine was 1,000,000 CFU/mL. Susceptibility tests were performed according to the Clinical and Laboratory Standards Institute (CLSI) guidelines. Blood cultures resulted negative, but the child had been on antimicrobial therapy for several days. The isolated Candida strain was susceptible to micafungin (MIC, 0.5 µg/mL), anidulafungin (MIC, 2 µg/mL), fluconazole (MIC, 0.5 µg/mL), itraconazole (MIC, 0.06 µg/mL), voriconazole (MIC, <0.008 µg/mL) and amphotericin B (MIC, 0.5 µg/mL). Among the effective antifungals, we chose micafungin because of the feasibility of plasma concentration monitoring via heel stick capillary samples [8]. After given and obtained informed consent from the parents, both in relation to the high dosage of micafungin to be administered and monitored and to the participation in clinical trials and publications, micafungin was administered intravenously at a dose of 8 mg/kg/day; it was diluted in 0.9% saline solution at a concentration of 2 mg/mL and infused intravenously through epicutaneo-cava catheter in one hour. Plasma micafungin concentrations were measured by high performance liquid chromatography (HPLC) on the third day of the starting of therapy. The lower limit of detection (LLOD) of micafungin was 0.5 mg/L, and the lower limit of quantification (LLOQ) was 1 mg/L. (Table 1).

[2] = test system: confirmed or suspected ICIs; conditions: 8 mg/kg/day; 35 neonates with confirmed or suspected ICIs; cited from earlier work
Text: Invasive Candida infections (ICIs) are a major cause of morbidity and mortality among very preterm infants; Candida albicans is the most frequently occurring species, although Candida parapsilosis infections are increasingly reported in preterm neonates. Despite the high minimum inhibitory concentration (MIC) necessary for Candida parapsilosis eradication, echinocandins have a prominent role when an ICI occurs in very preterm infants. These patients often carry a central vascular catheter in which Candida parapsilosis forms a biofilm, due to its adherence properties that favo ...

[3] = Clinical tolerability of micafungin (case report); type: in vivo, human preterm neonate; conditions: 8 mg/kg/day; for Side effects / tolerability: baby with previous cholestasis
Method: (§2) Given the severe clinical conditions of our patient, the epicutaneo-cava catheter was difficult to replace safely. The systemic therapy allowed complete infection control. […] We monitored plasma concentration of micafungin on 0.3 mL heel puncture blood samples, as previously described, in order to avoid excessive blood draws in a patient of low weight and in such severe clinical conditions.

[4] = Plasma micafungin concentration monitoring by HPLC; type: in vivo, human preterm neonate; conditions: one patient
Method: as §1, §2

[5] = test system: invasive Candida parapsilosis infection; assay: Clinical treatment of invasive Candida parapsilosis infection (case report); type: in vivo, human preterm neonate; conditions: 8 mg/kg/day; extremely preterm neonate with invasive Candida parapsilosis infection
Method: as §1, with “1). […]” for “1).”

Row | Structure (SMILES) | MIC ([1]; read-out: MIC) | Susceptibility of the isolated Candida strain [1] | MIC [1] | other results
1 | C[C@@H]1[C@H](O)[C@@H](C)/C=C/C=C/C=C/C=C/C=C/C=C/C=C/[C@H](O[C@@H]2O[C@H](C)[C@@H](O)[C@H](N)[C@@H]2O)C[C@@H]2O[C@](O)(C[C@@H](O)C[C@@H](O)[C@H](O)CC[C@@H](O)C[C@@H](O)CC(=O)O[C@H]1C)C[C@H](O)[C@H]2C(=O)O [amphotericin B] | 0.5 µg/mL (≈ 0.541 µM) | susceptible | – | –
2 | CCCCCOc1ccc(-c2ccc(-c3ccc(C(=O)N[C@H]4C[C@@H](O)[C@@H](O)NC(=O)[C@@H]5[C@@H](O)[C@@H](C)CN5C(=O)[C@H]([C@@H](C)O)NC(=O)[C@H]([C@H](O)[C@@H](O)c5ccc(O)cc5)NC(=O)[C@@H]5C[C@@H](O)CN5C(=O)[C@H]([C@@H](C)O)NC4=O)cc3)cc2)cc1 [anidulafungin] ({pTerphenylCO(4''-OnC5H11)}-[Orn(4R-OH,5R-OH)]T[Hyp][hTyr(3S-OH,4S-OH)]T[Pro(3S-OH,4S-Me)]; lactam 1-C; N-terminus assumed) | – | susceptible | 2 µg/mL (≈ 1.75 µM) | –
3 | OC(Cn1cncn1)(Cn1cncn1)c1ccc(F)cc1F [fluconazole] | 0.5 µg/mL (≈ 1.63 µM) | susceptible | – | –
4 | CCCCCOc1ccc(-c2cc(-c3ccc(C(=O)N[C@H]4C[C@@H](O)[C@@H](O)NC(=O)[C@@H]5[C@@H](O)[C@@H](C)CN5C(=O)[C@H]([C@H](O)CC(N)=O)NC(=O)[C@H]([C@H](O)[C@@H](O)c5ccc(O)c(OS(=O)(=O)O)c5)NC(=O)[C@@H]5C[C@@H](O)CN5C(=O)[C@H]([C@@H](C)O)NC4=O)cc3)no2)cc1 [micafungin] (X1-[Orn(4R-OH,5R-OH)]T[Hyp][hTyr(3S-OH,4S-OH,3'-OSO3H)][Gln(3R-OH)][Pro(3S-OH,4S-Me)]; lactam 1-C) | – | susceptible | 0.5 µg/mL (≈ 0.394 µM) | Response [2]: high response; Side effects / tolerability [3]: did not cause side effects; Side effects / tolerability ([3]; listed as Micafungin): well tolerated; Aspartate aminotransaminase and alanine aminotransaminase ([3]; rapidly returned within normal range after discontinuation of therapy): transient increase; Plasma Cmax/MIC ratio ([4]; 8 mg/kg/day micafungin dose): > 10; Cmax ([4]; human, in vivo, iv, 8 mg/kg/day i.v. over one hour, third day of therapy, plasma, HPLC, read-out: Plasma micafungin concentration, 1 h after infusion (C max)): 11800 ng/mL; level at -0.5 h ([4]; human, iv, 8 mg/kg/day i.v. over one hour, third day of therapy, plasma, HPLC, heel puncture blood samples, read-out: Plasma micafungin concentration, 30 min before infusion (C min)): 3730 ng/mL; level at 2 h ([4]; human, iv, 8 mg/kg/day i.v. over one hour, third day of therapy, plasma, HPLC, read-out: Plasma micafungin concentration, 2 h after infusion): 9700 ng/mL; level at 8 h ([4]; human, iv, 8 mg/kg/day i.v. over one hour, third day of therapy, plasma, HPLC, read-out: Plasma micafungin concentration, 8 h after infusion): 7900 ng/mL; Clinical efficacy [5]: effective

Now from value to molecule, other results behind:

Row | MIC ([1]; read-out: MIC) | Structure (SMILES) | Susceptibility of the isolated Candida strain [1] | MIC [1] | other results
5 | 0.06 µg/mL (≈ 0.085 µM) | CCC(C)n1ncn(-c2ccc(N3CCN(c4ccc(OCC5COC(Cn6cncn6)(c6ccc(Cl)cc6Cl)O5)cc4)CC3)cc2)c1=O (stereo not shown) [itraconazole] | susceptible | – | –
6 | < 0.008 µg/mL | C[C@@H](c1ncncc1F)[C@](O)(Cn1cncn1)c1ccc(F)cc1F [voriconazole] | susceptible | – | –
